Consider 11 molecules from patent US7015190B1, “Method for enhancing long-term memory in a subject and uses thereof” (The Trustees of Columbia University in the City of New York, priority 1996, dated 2006).

Series [1] deals with Aplysia sensory-motor neuron cocultures. Briefly: Short- and long-term synaptic facilitation (EPSP amplitude in motor neuron L7) in sensory-motor neuron cocultures. The format is cell-based. The method, then:
Aplysia sensory neurons from the pleural ganglia of adult animals (80–100 g) were cocultured with the motor neuron L7 from juvenile animals (0.5–4 g). After 4–5 days in culture, the strength of the synaptic connections between the sensory and motor cell was measured electrophysiologically, as previously described (Montarolo et al. 1986, Alberini et al., 1994). The motor neuron was impaled with a glass microelectrode filled with 2.5M KCl (10 MΩ (resistance) and its membrane potential was held at 30 mV below its resting value. The EPSP was evoked by extracellular stimulation of the sensory neuron and the data were stored on a 4 channel tape recorder.
Two protocols were used to induce synaptic facilitation in Aplysia cocultures. In the first, after testing the initial EPSP amplitude, 10 μM 5-HT was applied for 5 min (single pulse). […] The amount of facilitation was calculated as the percentage change in EPSP amplitude recorded before and at the different time points after the single 5-HT application. In the other group of experiments, long-term facilitation was evoked by five exposures to 10 μM 5-HT for 5 min each, at 20 min intervals (5 pulses). The facilitation was calculated as the percentage change in EPSP amplitude 24 hr after the five pulses of 5-HT. The antisera, adjusted to the osmolarity of Aplysia neurons (Alberini et al., 1994), were pressure injected into the sensory neurons 1 hr before 5-HT treatment. Where indicated, anisomycin (10 μM) or actinomycin D (50 μg/ml) was added to the cocultures 1 hr before the 5-HT pulse and was present continuously during the 5-HT treatment. All data are presented as mean percentage change ±SEM in the EPSP amplitude measured after treatment, as compared with its initial pretreatment amplitude. A one way analysis of variance and Newman Keuls multiple range test were used to determine the significance of the EPSP changes.

The test system is the same in series [2]. Briefly: Number of fluorescent sensory neuron varicosities contacting the motor neuron. As to conditions: 24 hr after one pulse of 5-HT; antiserum injected 1 hr before training. The format is cell-based. The method, then: Individual sensory neuron were cocultivated with a single motor cell. Glass micropipettes were filled with a 6% sterile-filtered solution of the fluorescent dye 5(6)-carboxyfluorescein (chromatographically purified; Molecular Probes) in 0.44 M KOH (pH 7.0, resistance 50-90 M. The dye was injected into the sensory neurons immediately after measuring the initial EPSP amplitude by 0.4–0.6 nA hyperpolarizing current pulses (500 ms duration at 1 Hz) for 4–6 min, phase contrast and fluorescence images of the same view areas were taken both before and 24 hr after treatment as previously described (Glanzman et al., 1990; Bailey et al., 1992).
Varicosities were identified according to criteria previously established for sensory neurons in vivo (Bailey et al., 1979; Bailey and Chen, 1983, 1988), and in vitro (Glanzman et al., 1990; Bailey et al., 1992) and included all slightly elongated spheres of approximately 2–3 μm or more in diameter.

In the next series the test system is ApCREB-2 mRNA. Briefly: Steady state level of ApCREB-2 mRNA after exposure to agents. Details: species or system Aplysia. As to conditions: following exposure to the agent. The method, then: RNA was isolated from cultures of approximately 200 Aplysia sensory neurons that had been exposed to none, one, or five pulses of 5-HT (10 μM) as indicated. As a control, one half of the RNA was processed omitting reverse transcriptase from the reaction (—RT).
(FIG. 3B) Northern blot analysis of RNA isolated from CNS of Aplysia exposed to 5-HT in vivo. CNSs were dissected from anesthetized animals after exposing them in vivo to 5-HT (50 μM) for the time indicated above each lane. Eight μg of total RNA from each timepoint was separated in a 1% agarose gel, blotted and consecutively hybridized with probes specific for ApCREB-2, ApCREB-1, ApC/EBP, and ribosomal protein S4 transcripts.
Cultures of approximately 200 Aplysia sensory neurons, established by the dissociation of the pleural sensory cluster in a single dish, were exposed to 10 μM 5-HT for 5 min once or five times separated by 20 min. After washing with ASW, cells were lysed by 100 μl of the guanidium thiocyanate solution and the RNA was isolated. For RT-PCR, the isolated RNA was treated with RNAse free DNAse (Boehringer), reextracted as above and processed using RT-PCR kit (Boehringer). The sequence of the primers used were […]

For another series, the system named is ATF4. Briefly: Amount of ATF4 during neuronal differentiation of PC12 cells. The format is cell-based, rat. As to conditions: PC12 cells exposed during differentiation. An excerpt:
The above may be tested in a cellular model of neuronal differentiation, specifically the rat pheochromocytoma cells PC12. The cell line is widely used as a model for neuronal differentiation and also for apoptosis, which is programmed neuronal cell death. PC12 cells are undifferentiated in culture and can be differentiated in vitro by exposing them to nerve growth factor (NGF) and cAMP analogs. Withdrawal of these compounds from the cell culture conditions leads to programmed cell death.
It has been investigated whether ATF4 plays a role in the neuronal differentiation of PC12 cells. […] In addition, overexpression of ATF4 in PC12 cells by transfecting expression constructs with constitutive CMV promoter and ATF4 cDNA prevents the PC12 cells from undergoing neuronal differentiation. […] It is important to also study the role of ATF4 in apoptosis. Since both differentiation and cell death in PC12 cell culture involve similar signal transduction pathways, it is reasonable that ATF4 may be involved in this process as well.

Series [3] concerns CRE-mediated transcription (5xCRE-VIP-lacZ reporter). Kind of series: 5xCRE-VIP-lacZ reporter, transient cotransfection of F9 cells. It is filed as cell-based, mouse. The method, then:
(FIG. 5B) Transient transfections of F9 cells using a 5xCRE-VIP-lacZ reporter plasmid. The indicated expression constructs were cotransfected with 5xCRE-VIP-lacZ reporter as in (A), except that relative (-galactosidase activity was calculated relative to 5xCRE-VIP-lacZ reporter and normalized to the luciferase activity of cotransfected pRSV-luc. ApCREB-2 and ApCREB-1 are activators of 5xCRE-VIP-lacZ reporter, but become mutual repressors when coexpressed.
(§1) Undifferentiated mouse F9 cells were transfected using Lipofectamine (BRL). The β-galactosidase and luciferase activities were quantitated by chemiluminescence (Galacton Plus, Tropix, and a Luciferase assay kit, Promega) in a Turner 20e luminometer.

The subject of series [4] is CRE-mediated transcription (pGL3-CRE reporter). Briefly: pGL3-CRE luciferase reporter, transient cotransfection of F9 cells. It is filed as cell-based, mouse. The method, then:
(FIG. 5A) Mouse F9 cells were transiently cotransfected with 1 μg of pGL3-CRE reporter plasmid along with 1 μg of each of the indicated expression plasmids: ApCREB-2=pRcRSV-ApCREB-2, ApCREB-1=pRcRSV-ApCREB-1, PKA=pRcRSV-PKA. All transfections were adjusted to 4 μg total DNA with pRcRSV vector DNA.
as §1
For orientation: A reporter such as luciferase makes a cellular process visible.

In another series the test system is UASg-lacZ gene. Briefly: GAL4 DNA binding domain activation assay in yeast. It is filed as cell-based, S. cerevisiae. As to conditions: fused to the GAL4 DNA binding domain, reporter UASg-lacZ. The method, then:
The Aplysia CNS cDNA library was synthesized in pGAD10 using random hexamers and the BRL cDNA synthesis kit. Two libraries constructed from size fractionated cDNAs with average inserts >2 kb (5×10^6 independent clones each) were used in the two-hybrid screening as described previously (Fields and Song., 1989, Durfee et al., 1993, Ausubel et al., 1994). The transcriptional activation properties of ApCREB-2 and its interaction with other proteins in the two-hybrid system was analyzed using the full length ApCREB-2 and its deletion mutants subcloned in pAS1 and pACT2 vectors. The transcriptional activity of ApCREB-2/GAL4 DNA binding domain fusions was determined as decribed (Ma and Ptashne, 1987; Durfee et al., 1993). To analyze the protein interactions, ApCREB-2, ApC/EBP, rat CREB, c-fos and deletion mutants of these proteins in pAS1 and pACT2 were cotransformed into S. cerevisiae Y190, and the expressed β-galactosidase quantified as above.

Where [5] appears, read: 2 hr after one pulse of 5-HT paired with ApCREB-2 antiserum injection, inhibitor present during 5-HT.
Where [6] appears, read: 24 hr after one pulse of 5-HT paired with ApCREB-2 antiserum injection, inhibitor present during 5-HT.
[7] abbreviates: expression plasmid alone, with PKA.
Setting [8] is: expression plasmid alone, without PKA.

Numbered stars: 1 amine (or outer) side, 2 acyl side, 3 side chain; on linkers, the order of the positions; unused ones are H or OH. Bridge positions count the residues as written; N and C are the ends. Square brackets hold non-standard residues; d marks the D form. Peptide text beside a SMILES is read from it. I, II: the chains in the order shown. Actinocin(9to1) = Cc1c2oc3c(C)ccc(C(=O)[*:1])c3nc-2c(C(=O)[*:2])c(N)c1=O; NMeV = CN[C@H](C(=O)O)C(C)C; Sar = CNCC(=O)O

For the molecule `NCCc1c[nH]c2ccc(O)cc12` [5-HT, serotonin], the “percent change in EPSP amplitude” value in series [1] (10 min after one pulse of 5-HT) is given as 13.6%; in series [1] (30 min after one pulse of 5-HT, sera injected 1 hr before) it was 2.83%; in series [1] (2 hr after one pulse of 5-HT, sera injected 1 hr before) it was −1%. For the same molecule, the “facilitation of the synaptic potential” value in series [1] (massed training: 25 minutes of continuous exposure to 5-HT) is reported as “+39%”. Also, the “duration of short-term facilitation” value in series [1] (single pulse of 5-HT, no injection) was “about 10 min”. In series [2], the “percent change in the number of sensory neuron varicosities” value is −10%. For the same molecule, the “level of ApCREB-2 mRNA” value in the series with ApCREB-2 mRNA is recorded as “not affected”.
As for `CNc1ccc2oc(C[C@H]3O[C@@]4(CC[C@H]3C)O[C@H]([C@H](C)C(=O)c3ccc[nH]3)[C@H](C)C[C@H]4C)nc2c1C(=O)O` [A23187], in the series on ApCREB-2 mRNA, the “level of ApCREB-2 mRNA” value is given as “does not change”.
`CC(C)Cn1c(=O)n(C)c(=O)c2[nH]cnc21` [IBMX]: the “level of ApCREB-2 mRNA” value in the series with ApCREB-2 mRNA is reported as “does not change”.
The same measure, in the same setting: the result for `Nc1ncnc2c1ncn2[C@@H]1O[C@@H]2CO[P@@](O)(=S)O[C@H]2[C@H]1O` [Rp-cAMPS] reads “does not change”.
`Nc1ncnc2c1ncn2[C@@H]1O[C@@H]2COP(O)(=S)O[C@H]2[C@H]1O` (some centres unmarked) [Sp-cAMPS]: the “level of ApCREB-2 mRNA” value in the series on ApCREB-2 mRNA is “does not change”.
As to `Cc1c2oc3c(C)ccc(C(=O)N[C@@H]4C(=O)N[C@H](C(C)C)C(=O)N5CCC[C@H]5C(=O)N(C)CC(=O)N(C)[C@@H](C(C)C)C(=O)O[C@@H]4C)c3nc-2c(C(=O)N[C@@H]2C(=O)N[C@H](C(C)C)C(=O)N3CCC[C@H]3C(=O)N(C)CC(=O)N(C)[C@@H](C(C)C)C(=O)O[C@@H]2C)c(N)c1=O` [actinomycin D] (I: T[dV]P[Sar][NMeV] / II: T[dV]P[Sar][NMeV]; ester I:1-I:C, II:1-II:C; linker I:N-II:N via Actinocin(9to1)), the “percent change in EPSP amplitude” value in series [1] (setting [5]) was “+10.12%”; in series [1] (setting [6]), 7.87%.
As to `COc1ccc(C[C@H]2NC[C@H](O)[C@H]2OC(C)=O)cc1` [anisomycin], the “percent change in EPSP amplitude” value is “+19.17%” in series [1] (setting [5]) and “+3.67%” in series [1] (setting [6]). In addition, the “level of ApCREB-2 mRNA” value in the series on ApCREB-2 mRNA is reported as “does not change”.
For the molecule `C=C1[C@@H](O)[C@@H]2O[C@]3(CC[C@H](/C=C/[C@@H](C)[C@@H]4CC(C)=C[C@@]5(O[C@H](C[C@@](C)(O)C(=O)O)CC[C@H]5O)O4)O3)CC[C@H]2O[C@@H]1[C@@H](O)C[C@H](C)[C@H]1O[C@@]2(CCCCO2)CC[C@H]1C` [okadaic acid], in the series on ApCREB-2 mRNA, the “level of ApCREB-2 mRNA” value is on record as “does not change”.
With NGF: nerve growth factor, the “amount of ATF4” value in the series with ATF4 is on record as “dramatically reduced”.
For “rat CREB-1: wild type rat CREB expressed from pRcRSV-CREB341”, the results for the relative activation in series [3] (setting [7]) and in series [3] (setting [8]) were 68.82±7.3 and 7.65±0.65, respectively.

B1: ApCREB-2: Aplysia bZIP transcription factor, 378 amino acids (SEQ ID NO 1), expressed from pRcRSV-ApCREB-2 (protein)
chain: MELDLWSEDFQLAREWGLEMPVVQTDGQFGDLKSTSRHGGDESLSLQPQGATLKLEPFEEDVLGAEWMESSDLGSFLDALGDNHERLHPFESNLLEFTSLITPDDSTVSKDILSSTLQFPTQPVNIPLYASHGAEDFSAETEFENHLSPPDSPEQVAPVINLEPVELTASHMTVISPDGLLGGMELASESLTFTELDFVNFNDSAVGSIGGAEELLGSPLSVDDVESTISFSGPSSPETSQSSIIESSPELYKVISTSSIDASKRFSPYSRSSKSKQSVKTSDAKAPRKTRTPAQPVPEHVIMEHLDKKDRKKLQNKNAAIRYRMKKKGEAQGIKGEEQELEELNTKLKTKVDDLQREIKYMKNLMEDVCKAKGIQLKM
As for B1, the relative activation turned out to be 0.96±0.15 in series [4] (cotransfected with ApCREB-1, absence of PKA catalytic subunit); 1.64±0.20 in series [4] (cotransfected with ApCREB-1, presence of PKA catalytic subunit); 1.84±0.25 in series [3] (cotransfected with ApCREB-1, absence of PKA); 4.12±0.53 in series [3] (cotransfected with ApCREB-1, presence of PKA); 5.15±0.62 in series [3] (cotransfected with rat CREB-1, with PKA); 2.27±0.3 in series [3] (cotransfected with rat CREB-1, without PKA). The relative activation in series [3] (setting [7]) came to 43.12±5.1; in series [3] (setting [8]) it was 2.46±0.2. In the series on UASg-lacZ gene, the “relative activity as compared to wild type GAL4” value amounted to 82%.
